Peptide text beside a SMILES is read from it.
Tests used:
Nb6E [1] = experiment: SPR analysis of 6E variant peptides binding to immobilized Nb6E-biotin
Description: (§1) SPR biosensor analysis was conducted on a Biacore T200 instrument (Cytiva) using a Series S Sensor Chip SA (streptavidin; Cytiva, #29104992) to determine Nb–tag binding affinity. All binding analyses were done in degassed SPR running buffer (1X PBS at pH 7.4 plus 0.05% P20). Biotinylated Nbs (Nb6E or Nb127), produced by sortagging reaction, was captured on SA chip where streptavidin is covalently coupled to dextran matrix. Biotinylated Nb (1 μM) was immobilized on flow cell via biotin–streptavidin interaction to reach a target response value of approximately 2000 response units. A separate flow cell was capped with only SPR running buffer to use as a surface control for nonspecific binding.
(§2) Analyte samples (127-tag peptide or mutant-6E peptides) were prepared as serial dilutions in SPR running buffer. Analyte was flowed over the chip at 50 μl/min with a contact time of 60 s and a dissociation time of 120 s. A duplicate injection of one concentration and a buffer injection (blank) were used for assessing chip surface performance and double referencing, respectively. […] Kinetic constants and KD values (M) were calculated from local fittings using 1:1 kinetics binding model for peptide (analyte) binding to Nb–biotin on the BIAevaluation software (Cytiva).

[2] = system: Nb6E (A2AR-Nb6E-ALFA) on HEK293 cells; experiment: Flow cytometry competition binding against FAM-6E-C14 on HEK293 cells; parameters: species or system human; settings: peptides 10-0.01 μM vs 10 nM FAM-6E-C14, 30 m, median AF647 fluorescence
Description: Human embryonic kidney 293 cells stably expressing a cell surface protein fused with Nb6E (A2AR-Nb6E-ALFA, described previously ([25])) were cultured in Dulbecco's modified Eagle's media containing 10% fetal bovine serum (Thermo; #A5256801) and 1X penicillin–streptomycin (Thermo; #15140-122). Binding assays were performed as described previously ([25]). Briefly, cells were suspended in 2% bovine serum albumin (BSA) in 1X PBS (w/v) (BSA-PBS) with variable concentrations of unlabeled variant 6E peptides (10–0.01 μM) and 10 nM fluorescein-labeled 6E peptide (FAM-6E-C14) for 30 m followed by 2x washing with BSA-PBS, and subsequent staining with antifluorescein Ab conjugated with AlexaFluor647 (1.5:1000 dilution in BSA-PBS; Jackson ImmunoResearch; #200-602-037). Cells were incubated again for 30 m, pelleted, washed, and analyzed by flow cytometry on a CytoFlex flow cytometer (Beckman Coulter). Cell labeling intensity was monitored in the FL4-APC channel. Live cells were identified and gated based on forward scatter–side scatter profile. […] Median fluorescence intensity for cell counts observed in the APC channel for each sample was calculated from histograms. Median fluorescence intensity values obtained from technical replicates of the same sample were averaged and plotted against the corresponding concentration of the variant 6E peptide.

Nb127 = experiment: SPR analysis of 127-tag binding to immobilized Nb127-biotin; settings: Biacore T200, Nb127-biotin on streptavidin chip, 127 tag 400-6.25 nM, PBS pH 7.4 + 0.05% P20, 1:1 kinetics binding model
Description: as §1, §2

Nb6E [3] = settings: cited from earlier work

Row | SMILES | rank of binding affinities (SPR) (Nb6E [1]) | rank of binding affinities (competition binding assay) [2] | Kd (Nb127) | experimental binding to Nb6E (earlier work) (Nb6E [3])
1 | CC[C@H](C)[C@H](NC(=O)[C@H](CCC(N)=O)NC(=O)[C@H](CCCNC(=N)N)NC(=O)[C@H](C)NC(=O)[C@H](CCSC)NC(=O)[C@H](CCC(=O)O)NC(=O)[C@H](CCCCN)NC(=O)[C@H](C)NC(=O)[C@H](CCC(=O)O)NC(=O)[C@H](CCC(N)=O)NC(=O)[C@H](CC(=O)O)NC(=O)[C@H](C)NC(=O)[C@H](CCC(N)=O)NC(=O)CNC(=O)CNC(=O)CN)C(=O)N[C@@H](CO)C(N)=O [6E-M9] (H-GGGQADQEAKEMARQIS-NH2) | 6E-M9 > 6E-WT > 6E-F9 | 6E-M9 > 6E-WT > 6E-F9 | – | –
2 | NCCCC[C@H](NC(=O)[C@H](Cc1c[nH]c2ccccc12)NC(=O)[C@H](Cc1ccccc1)NC(=O)[C@H](CC(=O)O)NC(=O)[C@H](CCC(=O)O)NC(=O)[C@H](Cc1ccccc1)NC(=O)[C@@H](N)CO)C(=O)NCC(=O)N[C@@H](CCC(=O)O)C(=O)N[C@@H](CC(=O)O)C(N)=O [127-tag] (H-SFEDFWKGED-NH2) | – | – | 14 nM | –
3 | CC[C@H](C)[C@H](NC(=O)[C@H](CCC(N)=O)NC(=O)[C@H](CCCNC(=N)N)NC(=O)[C@H](C)NC(=O)[C@H](CC(C)C)NC(=O)[C@H](CCC(=O)O)NC(=O)[C@H](CCCCN)NC(=O)[C@H](C)NC(=O)[C@H](CCC(=O)O)NC(=O)[C@H](CCC(N)=O)NC(=O)[C@H](CC(=O)O)NC(=O)[C@H](C)NC(=O)[C@@H](N)CCC(N)=O)C(=O)N[C@@H](CO)C(N)=O [6E-L9 (WT)] (H-QADQEAKELARQIS-NH2) | 6E-M9 > 6E-WT > 6E-F9 | 6E-M9 > 6E-WT > 6E-F9 | – | substantially higher affinity than the 6E-A9 variant
